From patent publication US20080269106A1, “Methods and Compositions for Diagnosis and Treatment of Disorders Involving Macrophages” (priority 2005, published 2008) come the findings set out here.

d = 2'-deoxy (DNA); r = 2'-OH (RNA)

The target of series [1] is estrogen receptor-α (ERα) (Homo sapiens, UniProt P03372). The following applies: cells null for either MEKK1 or TAB2.
Excerpt: Wild-type MEKK1, C478A MEKK1 (mutant of ubiquitin ligase activity), or D1369A MEKK1 (mutant of kinase activity) was used to rescue IL-1β-dependent activation of the pS2 promoter by 4-OHT in MEFs from MEKK−/− mice.
Series [2] deals with T1, androgen receptor (AR) (Homo sapiens, UniProt P10275).
T1 construct: Nuclear microinjection studies were performed in RWPE1 cells using a Prostate Specific Antigen (PSA) promoter/reporter construct; endogenous in cells; host or cells: RWPE1 prostate cells
T1 sequence (P10275 1-920): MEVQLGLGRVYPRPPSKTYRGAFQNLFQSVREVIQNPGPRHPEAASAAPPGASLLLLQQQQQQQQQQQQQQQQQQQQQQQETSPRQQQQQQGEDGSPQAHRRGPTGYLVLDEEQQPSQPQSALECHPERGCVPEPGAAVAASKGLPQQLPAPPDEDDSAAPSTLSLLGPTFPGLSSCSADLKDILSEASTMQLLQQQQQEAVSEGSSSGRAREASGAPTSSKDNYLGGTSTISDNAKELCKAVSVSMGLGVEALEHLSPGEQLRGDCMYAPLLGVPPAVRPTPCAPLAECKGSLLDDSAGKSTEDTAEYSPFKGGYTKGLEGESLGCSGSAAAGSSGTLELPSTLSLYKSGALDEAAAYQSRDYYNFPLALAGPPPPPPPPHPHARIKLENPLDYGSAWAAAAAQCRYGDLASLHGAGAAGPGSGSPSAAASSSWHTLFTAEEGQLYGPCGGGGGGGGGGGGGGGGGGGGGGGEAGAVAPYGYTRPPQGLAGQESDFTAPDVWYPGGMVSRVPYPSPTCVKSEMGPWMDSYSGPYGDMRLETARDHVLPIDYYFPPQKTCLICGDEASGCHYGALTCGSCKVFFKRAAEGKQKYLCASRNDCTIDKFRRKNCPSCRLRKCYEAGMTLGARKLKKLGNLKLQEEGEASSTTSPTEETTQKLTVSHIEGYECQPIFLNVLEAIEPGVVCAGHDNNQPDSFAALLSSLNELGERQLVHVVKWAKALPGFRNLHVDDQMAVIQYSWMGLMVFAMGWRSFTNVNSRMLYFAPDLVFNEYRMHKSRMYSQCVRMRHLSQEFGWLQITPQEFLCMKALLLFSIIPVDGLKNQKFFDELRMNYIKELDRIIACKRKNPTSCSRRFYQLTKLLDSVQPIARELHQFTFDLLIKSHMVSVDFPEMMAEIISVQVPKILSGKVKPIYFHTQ
Put plainly: ARE-dependent lacZ reporter, single cell nuclear microinjection. In kind it is cell-based. The following applies: presence of bicalutamide.
Description: Specific IgGs against AR, N-CoR, TAB2, HDAC3, HDAC2, HDAC1, Sin3, or MBD3 were used to immunoprecipitate protein-bound DNA fragments. […] The bound material was eluted and divided into several aliquots, and re-immunoprecipitated with antibodies as shown (2nd IP).
Cells were stained with antibodies directed against the N-CoR, and the fluorescence-conjugated secondary antibody was visualized using deconvoluting microscopy. Merged images with nuclear staining with DAPI are shown. […] 5 ng/ml of leptomycin B (LMB), a nuclear export inhibitor, was also used for 30 min followed by treatment with 10 ng/ml of IL-1β.

The subject of series [3] is RARα fusion proteins (AR-N′/RAR, ER-N′/RAR). Put plainly: RARα-dependent reporter with AR-N'/RAR and ER-N'/RAR fusion receptors, single cell microinjection. In kind it is cell-based.
A further series concerns BMP7. Put plainly: Semi-quantitative RT-PCR of BMP7 in MCF-7 breast cancer cells. Particulars: MCF-7 cells. In kind it is cell-based. On the procedure: Semi-quantitative RT-PCR was carried out as described (Zhu et al, 2004). Primers were: […]
(§1) Actin was used as the loading control. […] A BMP7 promoter-controlled LacZ reporter and an ERα expression plasmid were injected into cells. […] Wild-type ERα and Erα (E203A/G204A) were cotransfected with the reporter in 293 cells. […] Primer pair #1 flanks two putative ERE half-sites, and primer pair #2 (control) flanks a region ˜3 kb upstream of #1.
This is particularly relevant in light of the fact that a key aspect of reproductive regulation, blastocyst implantation, involves a local induction of BMP7 in response to inflammatory signals (Monroe et al., 2000; Paria et al., 2001).

Series [4] has as its target T1, androgen receptor (AR). Put plainly: PSA promoter reporter, single cell nuclear microinjection in RWPE1 cells. In kind it is cell-based. Particulars: for effect on IL-1β-mediated activator function of bicalutamide: 14mer peptide microinjected, PSA promoter- or ARE-dependent reporters. An excerpt:
One representative of three independent experiments is shown.

The target in series [5] is T2, ERα (Homo sapiens, UniProt P03372).
T2 sequence (P03372 1-595): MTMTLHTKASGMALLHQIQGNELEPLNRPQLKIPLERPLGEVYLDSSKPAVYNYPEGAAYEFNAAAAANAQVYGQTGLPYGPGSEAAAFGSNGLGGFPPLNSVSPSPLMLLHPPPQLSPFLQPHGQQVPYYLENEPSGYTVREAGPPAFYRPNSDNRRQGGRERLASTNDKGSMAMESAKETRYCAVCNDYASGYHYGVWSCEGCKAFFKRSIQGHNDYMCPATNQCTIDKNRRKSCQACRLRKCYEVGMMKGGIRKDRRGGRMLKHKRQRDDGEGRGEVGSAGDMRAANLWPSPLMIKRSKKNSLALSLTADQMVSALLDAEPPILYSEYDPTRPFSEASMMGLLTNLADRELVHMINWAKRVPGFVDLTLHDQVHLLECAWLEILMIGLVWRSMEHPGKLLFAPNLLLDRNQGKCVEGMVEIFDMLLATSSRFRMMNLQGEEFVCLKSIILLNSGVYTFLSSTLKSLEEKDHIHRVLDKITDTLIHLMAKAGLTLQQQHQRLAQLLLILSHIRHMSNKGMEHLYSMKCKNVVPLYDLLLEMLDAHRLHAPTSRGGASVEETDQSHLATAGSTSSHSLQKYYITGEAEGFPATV
Put plainly: BMP7 promoter-controlled LacZ reporter, single cell nuclear microinjection in Rat-1 cells. Format: cell-based. Details: expressed in transfected cells; host or cells: Rat-1 cells. Particulars: added to E2. The protocol:
as §1

For series [6], the target named is T2, ERα. Put plainly: Luciferase reporter driven by human BMP7 proximal promoter in 293 cells. In kind it is cell-based. Details: expressed in transfected cells; host or cells: 293 cells. The following applies: combination of E2 and IL-1β. The protocol:
as §1

Another series has as its target T3, endogenous TAB2 (UniProt Q9NYJ8 1-693).
T3 construct: Endogenous protein, detected with anti-TAB2 IgG
T3 sequence (looked up): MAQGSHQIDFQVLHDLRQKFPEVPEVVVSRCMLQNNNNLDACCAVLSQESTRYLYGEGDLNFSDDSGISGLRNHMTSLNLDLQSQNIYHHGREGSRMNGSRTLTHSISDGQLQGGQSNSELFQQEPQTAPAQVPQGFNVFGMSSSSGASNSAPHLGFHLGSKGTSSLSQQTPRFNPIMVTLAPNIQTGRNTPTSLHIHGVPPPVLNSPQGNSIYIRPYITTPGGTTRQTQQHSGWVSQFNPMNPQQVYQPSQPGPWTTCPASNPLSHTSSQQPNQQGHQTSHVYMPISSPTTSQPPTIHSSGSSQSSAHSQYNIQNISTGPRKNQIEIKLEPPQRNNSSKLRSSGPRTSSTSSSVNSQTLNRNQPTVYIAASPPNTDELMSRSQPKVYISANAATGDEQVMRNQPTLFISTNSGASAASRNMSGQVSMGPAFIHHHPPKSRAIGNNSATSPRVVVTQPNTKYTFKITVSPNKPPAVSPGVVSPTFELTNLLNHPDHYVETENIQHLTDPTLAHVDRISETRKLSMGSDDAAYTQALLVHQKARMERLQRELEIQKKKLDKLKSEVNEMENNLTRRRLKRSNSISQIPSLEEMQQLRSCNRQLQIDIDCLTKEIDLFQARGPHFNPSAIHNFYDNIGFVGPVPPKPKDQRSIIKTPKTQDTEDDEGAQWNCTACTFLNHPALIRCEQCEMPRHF
Put plainly: 2-step ChIP co-occupancy.

For 4-OH tamoxifen [4-OHT], in series [1], the “IL-1β-dependent conversion to activator of ERα” value is listed as “failed to occur”.

For the molecule “5′-GCACCGAAGUAUUGUCCAAdTdT-3′ (sense GCACCGAAGUAUUGUCCAATT; antisense UUGGACAAUACUUCGGUGCTT; siRNA; sugars from the 5' end r19 d2, backbone not given here) [N-CoR siRNA]”, in the series with androgen receptor (AR) [2], the “effect on bicalutamide-dependent repression of ARE reporter” value is given as “switch from repression to activation”.

As to `C[C@]12CCC(=O)C[C@@H]1CC[C@@H]1[C@@H]2CC[C@]2(C)[C@@H](O)CC[C@@H]12` [DHT, Dihydrotestosterone], the “activation of chimeric RARα” value in series [3] is “neither E2 nor DHT exerted activation effects”.

In the case of `C[C@]12CC[C@@H]3c4ccc(O)cc4CC[C@H]3[C@@H]1CC[C@@H]2O` [E2, 17-β-estradiol], the “activation of chimeric RARα” value in series [3] is “neither E2 nor DHT exerted activation effects”. Further, the BMP7 transcript levels result in the series on BMP7 was “decreased levels of BMP7 transcripts”.

With “DIASEASTMQAAQQ [mutated AX7AA (SEQ ID NO:26) sequence]”, in the series with androgen receptor (AR) [4], the “effect on IL-1β-mediated activator function of bicalutamide” value is reported as “failed to inhibit induction”.

For “DILSEASTMQLLQQ [14mer synthetic peptide encompassing the AR LX7LL motif]”, the “effect on IL-1β-mediated activator function of bicalutamide” value with androgen receptor (AR) [4] is “specifically blocked”. In addition, the “effect on macrophage-induced agonistic switch of bicalutamide” value with androgen receptor (AR) [4] (peptide microinjected into RWPE1 cells pre-treated with TNFα, THP-1 macrophages, PSA promoter-dependent reporter) is “blocked”.

For the molecule “IL-1β: human IL-1β from Calbiochem, pro-inflammatory cytokine”, the “expression of hBMP-7 promoter-controlled reporter on addition to E2” value in the series with ERα [5] is “actively increased expression over the baseline”. In addition, the “effect on E2 inhibition of BMP7 transcripts” value in the series with BMP7 (added to E2) is given as “blocked this inhibition”. In addition, in the series with ERα [6], the “hBMP7 proximal promoter reporter activity, combination with E2” value was “restored the reporter activity to the baseline”.

B1: wild-type RARα (receptor, UniProt P10276 1-462, looked up)
chain: MASNSSSCPTPGGGHLNGYPVPPYAFFFPPMLGGLSPPGALTTLQHQLPVSGYSTPSPATIETQSSSSEEIVPSPPSPPPLPRIYKPCFVCQDKSSGYHYGVSACEGCKGFFRRSIQKNMVYTCHRDKNCIINKVTRNRCQYCRLQKCFEVGMSKESVRNDRNKKKKEVPKPECSESYTLTPEVGELIEKVRKAHQETFPALCQLGKYTTNNSSEQRVSLDIDLWDKFSELSTKCIIKTVEFAKQLPGFTTLTIADQITLLKAACLDILILRICTRYTPEQDTMTFSDGLTLNRTQMHNAGFGPLTDLVFAFANQLLPLEMDDAETGLLSAICLICGDRQDLEQPDRVDMLQEPLLEALKVYVRKRRPSRPHMFPKMLMKITDLRSISAKGAERVITLKMEIPGSMPPLIQEMLENSEGLDTLSGQPGGGGRDGGGLAPPPGSCSPSLSPSSNRSSPATHSP
notes: also called retinoic acid receptor
As for B1, the binding result with endogenous TAB2 is recorded as “no binding”.
